Data taken from patent US11467161B2, “Biomarkers of therapeutic responsiveness” (Meso Scale Technologies, LLC., priority 2013, dated 2022).
Where two headings read alike, the source gives them in different places.

Key:
[1] = test system: A375 (GSKshRNA) xenograft + doxycycline; assay: Biomarker levels in A375 shRNA + Dox melanoma xenograft tumor extracts (MSD multiplex immunoassay); format: in vivo, mice; conditions: A375 shRNA + Dox tumor extract, sorafenib (+), mean
Protocol: (§1) A panel of biomarkers was measured in Melanoma and RCC xenograft tissue extracts from mice, described in Table 4. Xenografts were generated using the listed melanoma and RCC cell lines, and tumors harvested and extracted following the indicated treatments. SKMEL5 cells were used with or without transfection to express constitutively active GSK3β. A375 cells were used with or without transfection to express GSK3β specific shRNA under a doxycycline-controlled promoter.
(§2) Multiplex immunoassay kits were used for detection of total and/or phosphorylated biomarkers (supplied by Meso Scale Discovery, a division of Meso Scale Diagnostics, LLC, Rockville, Md.). Levels of each biomarker were determined by calibration of the assays with were either purified calibrator proteins or using control cell lysates from appropriately treated cultured cell lines (e.g., cells subjected to conditions known to induce or reduce levels of a specific biomarker). Calibration curves were derived by testing serial dilutions of the calibrator lysates or purified proteins. Levels of biomarkers in test samples were back-calculated from the calibration curves and were expressed in terms of wt. (or arbitrary Units for phospho-protein markers) of protein per weight of tissue extract (for purified calibrators) or in terms of weight of crude control lysate protein per well (for lysate calibrators). Titrations of tumor extracts were carried out to determine the linearity of the assay response to sample dilution and to select the sample dilution that would be appropriate to use for each assay panel.
(§3) In general, the assay format was as follows, with minor alterations for specific assay panels as indicated in the assay protocols provided with each assay kit (supplied by Meso Scale Discovery, Rockville, Md.): (1) block MSD MULTI-SPOT® plate for 1 hour with appropriate MSD® blocking solution and wash; (2) add 25 μl assay diluent to each well, if specified; (3) add 25 μl calibrator, or sample (diluted as appropriate) to each well; (4) incubate with shaking for 1-3 hours (time as specified) and wash the well; (5) add 25 μl labeled detection antibody solution to each well; (6) incubate with shaking for 1-2 hours (time as specified) and wash the well; (7) add 150 μl MSD read buffer to each well; (8) read plate immediately on MSD SECTOR® Imager 6000 Reader (supplied by Meso Scale Discovery, Rockville, Md.).
(§4) Tumor tissue extracts were assayed at 5-10 μg/well total protein per well. Samples from each set were assayed on the same plate. […] The signals obtained are not normalized to any housekeeping tissue factor, which may serve to improve animal-to-animal reproducibility, but are normalized to total lysate protein.
(§5) Samples that were not treated with drug are designated as (−) and those treated with drug as (+).

A375 xenograft = assay: Biomarker levels in A375 control melanoma xenograft tumor extracts (MSD multiplex immunoassay); format: in vivo, mice
Protocol: as §1, §2, §3, §4, §5

[2] = test system: A375 (GSKshRNA) xenograft; assay: Biomarker levels in A375 GSK3β shRNA melanoma xenograft tumor extracts (MSD multiplex immunoassay); format: in vivo, mice
Protocol: as §1, §2, §3, §4, §5

786-0 xenograft = assay: Biomarker levels in 786-0 RCC xenograft tumor extracts (MSD multiplex immunoassay); format: in vivo, mice
Protocol: as §1, §2, §3, §4, §5

[3] = test system: SKMEL5 (active GSK3beta) xenograft; assay: Biomarker levels in SKMEL5 GSK3β+ (active GSK3beta) melanoma xenograft tumor extracts (MSD multiplex immunoassay); format: in vivo, mice
Protocol: as §1, §2, §3, §4, §5

A375 cells = conditions: cited from earlier work
SKMEL5 xenograft = assay: Biomarker levels in SKMEL5 wt melanoma xenograft tumor extracts (MSD multiplex immunoassay); format: in vivo, mice
Protocol: as §1, §2, §3, §4, §5

A498 xenograft = assay: Biomarker levels in A498 RCC xenograft tumor extracts (MSD multiplex immunoassay); format: in vivo, mice; conditions: A498 tumor extract, sunitinib (+), mean
Protocol: as §1, §2, §3, §4, §5

[4] = A375 control tumor extract, sorafenib (+), mean
[5] = wild type A375 tumors, sorafenib
[6] = A375 GSK3β shRNA tumor extract, sorafenib (+), mean
[7] = SKMEL5 GSK3β+ tumor extract, sorafenib (+), mean
[8] = SKMEL5 wt tumor extract, sorafenib (+), mean
[9] = 786-0 tumor extract, sunitinib (+), mean

CNC(=O)c1cc(Oc2ccc(NC(=O)Nc3ccc(Cl)c(C(F)(F)F)c3)cc2)ccn1 [sorafenib]
Akt [1]: 1.6 pg/ug pr | GSK3β [1]: 24 pg/ug pr | Rb [1]: 0.27 pg/ug pr | SRFP-1 [1]: 0.22 pg/ug pr | VEGF [1]: 2.6 pg/ug pr | c-Met [1]: 0.10 ng/ug pr | dephospho β-catenin [1]: 2.9 Units/ug pr | phospho-GSK3β [1]: 6.6 Units/ug pr | phospho-Rb [1]: 0.10 Units/ug pr | phospho-cMet [1]: 1.4 pg lys cal/ug pr | phosphor-Akt [1]: 6.1 Units/ug pr | β-catenin [1]: 21 pg/ug pr | Akt (A375 xenograft; [4]): 5.3 pg/ug pr | GSK3β (A375 xenograft; [4]): 84 pg/ug pr | Rb (A375 xenograft; [4]): 3.45 pg/ug pr | SRFP-1 (A375 xenograft; [4]): 1.30 pg/ug pr | Wnt3A (A375 xenograft; [4]): 23.2 pg/ug pr | c-Met (A375 xenograft; [4]): 0.23 ng/ug pr | dephospho β-catenin (A375 xenograft; [4]): 7.3 Units/ug pr | phospho-Rb (A375 xenograft; [4]): 0.21 Units/ug pr | phospho-cMet (A375 xenograft; [4]): 3.6 pg lys cal/ug pr | phosphor-Akt (A375 xenograft; [4]): 8.5 Units/ug pr | β-catenin (A375 xenograft; [4]): 32 pg/ug pr | change in total Rb levels with treatment (A375 xenograft; control A375, sorafenib, most samples at or below detection limits): increase in its levels | change in phospho-GSK3β with treatment (A375 xenograft; [5]): no changes | change in total GSK3β with treatment (A375 xenograft; [5]): no changes | Akt [2, 6]: 2.2 pg/ug pr | GSK3β [2, 6]: 50 pg/ug pr | Rb [2, 6]: 0.96 pg/ug pr | SRFP-1 [2, 6]: 0.35 pg/ug pr | VEGF [2, 6]: 8.5 pg/ug pr | Wnt3A [2, 6]: 12.0 pg/ug pr | c-Met [2, 6]: 0.16 ng/ug pr | dephospho β-catenin [2, 6]: 3.0 Units/ug pr | phospho-GSK3β [2, 6]: 11.1 Units/ug pr | phospho-Rb [2, 6]: 0.13 Units/ug pr | phospho-cMet [2, 6]: 1.8 pg lys cal/ug pr | phosphor-Akt [2, 6]: 5.9 Units/ug pr | β-catenin [2, 6]: 16 pg/ug pr | change in levels of active β-catenin with treatment ([2]; shRNA transfected A375 tumors, sorafenib): reduction in levels of active β-catenin | change in VEGF levels with treatment (786-0 xenograft; 786-0, treated vs untreated): increased levels of VEGF | Akt [3, 7]: 32.4 pg/ug pr | E-Cadherin [3, 7]: 0.0 pg/ug pr | GSK3β [3, 7]: 88 pg/ug pr | Rb [3, 7]: 0.63 pg/ug pr | SRFP-1 [3, 7]: 0.22 pg/ug pr | VEGF [3, 7]: 7.2 pg/ug pr | c-Met [3, 7]: 0.59 ng/ug pr | dephospho β-catenin [3, 7]: 12.6 Units/ug pr | phospho-GSK3β [3, 7]: 7.9 Units/ug pr | phospho-Rb [3, 7]: 0.53 Units/ug pr | phospho-cMet [3, 7]: 7.2 pg lys cal/ug pr | phosphor-Akt [3, 7]: 14.3 Units/ug pr | β-catenin [3, 7]: 39 pg/ug pr | change in E-cadherin levels with treatment ([3]; SKMEL5 transfected (active GSK3β), sorafenib): no additional effect | sorafenib-induced apoptosis (A375 cells; A375 cells, down-modulation of GSK3β with shRNA): increase sorafenib-induced apoptosis | sorafenib-induced apoptosis (A375 cells; wild type A375 cells, endogenous active GSK3β): resistance to sorafenib-induced apoptosis | change in E-cadherin levels with treatment (SKMEL5 xenograft; SKMEL5 not transfected, sorafenib): no additional effect | change in phospho-Akt levels with treatment (SKMEL5 xenograft; SKMEL5 tumors, sorafenib): unchanged phospho-Akt levels | change in total Akt levels with treatment (SKMEL5 xenograft; SKMEL5 tumors, sorafenib): reduced levels of total Akt | Akt (SKMEL5 xenograft; [8]): 22.3 pg/ug pr | E-Cadherin (SKMEL5 xenograft; [8]): 10.9 pg/ug pr | GSK3β (SKMEL5 xenograft; [8]): 162 pg/ug pr | Rb (SKMEL5 xenograft; [8]): 0.23 pg/ug pr | SRFP-1 (SKMEL5 xenograft; [8]): 0.08 pg/ug pr | VEGF (SKMEL5 xenograft; [8]): 0.8 pg/ug pr | Wnt3A (SKMEL5 xenograft; [8]): 6.2 pg/ug pr | c-Met (SKMEL5 xenograft; [8]): 0.51 ng/ug pr | dephospho β-catenin (SKMEL5 xenograft; [8]): 7.4 Units/ug pr | phospho-GSK3β (SKMEL5 xenograft; [8]): 44.0 Units/ug pr | phospho-Rb (SKMEL5 xenograft; [8]): 0.62 Units/ug pr | phospho-cMet (SKMEL5 xenograft; [8]): 15.7 pg lys cal/ug pr | β-catenin (SKMEL5 xenograft; [8]): 31 pg/ug pr | change in active (dephospho) β-catenin with treatment (SKMEL5 xenograft; wt SKMEL5 tumors, sorafenib): decreased | change in GSK3β phosphorylation with treatment (SKMEL5 xenograft; wt SKMEL5 tumors, sorafenib, total cellular protein): A reduction in GSK3β phosphorylation was not observed

CCN(CC)CCNC(=O)c1c(C)[nH]c(/C=C2\C(=O)Nc3ccc(F)cc32)c1C [sunitinib]
Akt (A498 xenograft): 6.3 pg/ug pr | E-Cadherin (A498 xenograft): 0.0 pg/ug pr | GSK3β (A498 xenograft): 24 pg/ug pr | Rb (A498 xenograft): 0.00 pg/ug pr | SRFP-1 (A498 xenograft): 0.15 pg/ug pr | VEGF (A498 xenograft): 5.8 pg/ug pr | Wnt3A (A498 xenograft): 8.8 pg/ug pr | c-Met (A498 xenograft): 1.47 ng/ug pr | dephospho β-catenin (A498 xenograft): 3.4 Units/ug pr | phospho-GSK3β (A498 xenograft): 14.2 Units/ug pr | phospho-Rb (A498 xenograft): 0.08 Units/ug pr | phospho-cMet (A498 xenograft): 73.6 pg lys cal/ug pr | phosphor-Akt (A498 xenograft): 59.1 Units/ug pr | β-catenin (A498 xenograft): 34 pg/ug pr | Akt (786-0 xenograft; [9]): 9.3 pg/ug pr | E-Cadherin (786-0 xenograft; [9]): 0.1 pg/ug pr | GSK3β (786-0 xenograft; [9]): 61 pg/ug pr | Rb (786-0 xenograft; [9]): 6.48 pg/ug pr | SRFP-1 (786-0 xenograft; [9]): 0.23 pg/ug pr | VEGF (786-0 xenograft; [9]): 38.3 pg/ug pr | Wnt3A (786-0 xenograft; [9]): 11.8 pg/ug pr | c-Met (786-0 xenograft; [9]): 1.26 ng/ug pr | dephospho β-catenin (786-0 xenograft; [9]): 23.3 Units/ug pr | phospho-GSK3β (786-0 xenograft; [9]): 5.9 Units/ug pr | phospho-Rb (786-0 xenograft; [9]): 0.14 Units/ug pr | phospho-cMet (786-0 xenograft; [9]): 31.5 pg lys cal/ug pr | phosphor-Akt (786-0 xenograft; [9]): 78.5 Units/ug pr | β-catenin (786-0 xenograft; [9]): 82 pg/ug pr
